Measurements taken from patent publication US20100099770A1, “METHOD FOR TREATING DIABETIC PERIPHERAL NEUROPATHIC PAIN” (SCHWARZ PHARMA AG, priority 2001, published 2010).
Several values for one entry are separate records, joined by “and”; a condition that tells them apart may be missing. Equal entries are not always repeated. Marks after values point to notes of the source that are not given here.

What was measured:
[1] = test system: Carrageenan-induced mechanical hyperalgesia; assay: Carrageenan-induced mechanical hyperalgesia, paw pressure (Randall-Sellito) test; type: in vivo, rats; details: for nociceptive threshold: inflamed paw, 3 h after carrageenan
Method: Carrageenan-induced mechanical hyperalgesia in rats was induced by subplantar injection of a 0.1 ml of a 2% carrageenan suspension and measured 3 h afterwards by the paw pressure (Randall-Sellito) test.
(§1) Drugs and experimental design: SPM 927 and GBP were suspended in 1% methylcellulose and administered i.p. at doses of 10 mg/kg, 20 mg/kg and 40 mg/kg. Pre-treatment time was 30 min before pain measurement. One group of animals served as controls and consequently received an injection of solvent (10 ml/kg) and another group of animals received a reference compound (Carrageenan test: 10 mg/kg indomethacin; Formalin test: 10 mg/kg morphine). Each compound was tested in a separate experiment and each experiment included a control and a reference group. 10 rats per group were used in the Carrageenan test and 6 mice per group in the formalin test.

[2] = test system: neuropathic pain (CHUNG), tactile stimulation; assay: Neuropathic pain (CHUNG) test, tactile stimulation on lesioned paw; type: in vivo, rat; details: for FORCE INDUCING PAW-WITHDRAWAL, % change: compared with lesioned control; for FORCE INDUCING PAW-WITHDRAWAL, mean ± s.e.m.: lesioned paw
Text: (§2) The following Tables 8 and 9 show the effects of harkoseride (hereinafter referred tows SPM 927), carbamazepine, levetiracetam, gabapentin and morphine in the neuropathic pain (CHUNG) test in the rat. Eight (8) rats per group were used.

[3] = test system: neuropathic pain (CHUNG), thermal stimulation; assay: Neuropathic pain (CHUNG) test, thermal stimulation on lesioned paw; type: in vivo, rat
Text: as §2

[4] = test system: formalin-induced nociception (paw licking); assay: Subchronic inflammatory nociception in mice (formalin test); type: in vivo; details: for nociceptive threshold, early phase: 0-5 min after formalin (acute pain); for nociceptive threshold, late phase: 20-30 min after formalin (subchronic inflammatory pain)
Method: Subchronic inflammatory nocicpetion in mice was induced by the subplantar injection of formalin (0.02 ml of a 5% solution). Nociceptive behaviour (paw licking) was measured and quantified between 0 and 5 min (acute pain) and between 20 and 30 min (subchronic inflammatory pain) after formalin.
as §1

[5] = 10 mg/kg i.p. 30 min before measurement
[6] = 16 mg/kg i.p. -30 min, compared with lesioned control
[7] = 16 mg/kg i.p. -30 min, lesioned paw
[8] = 32 mg/kg i.p. -30 min, compared with lesioned control
[9] = 32 mg/kg i.p. -30 min, lesioned paw
[10] = 64 mg/kg i.p. -30 min, compared with lesioned control
[11] = 64 mg/kg i.p. -30 min, lesioned paw

SMILES | nociceptive threshold [1, 5] | FORCE INDUCING PAW-WITHDRAWAL, % change ([2]; 16 mg/kg i.p. -30 min) | FORCE INDUCING PAW-WITHDRAWAL, mean ± s.e.m. ([2]; 16 mg/kg i.p. -30 min) | FORCE INDUCING PAW-WITHDRAWAL, % change ([2]; 32 mg/kg i.p. -30 min) | FORCE INDUCING PAW-WITHDRAWAL, mean ± s.e.m. ([2]; 32 mg/kg i.p. -30 min) | FORCE INDUCING PAW-WITHDRAWAL, % change ([2]; 64 mg/kg i.p. -30 min) | FORCE INDUCING PAW-WITHDRAWAL, mean ± s.e.m. ([2]; 64 mg/kg i.p. -30 min) | PAW-WITHDRAWAL LATENCY, % change [3, 6] | PAW-WITHDRAWAL LATENCY, mean ± s.e.m. [3, 7] | PAW-WITHDRAWAL LATENCY, % change [3, 8] | PAW-WITHDRAWAL LATENCY, mean ± s.e.m. [3, 9] | PAW-WITHDRAWAL LATENCY, % change [3, 10] | PAW-WITHDRAWAL LATENCY, mean ± s.e.m. [3, 11] | nociceptive threshold, early phase ([4]; 10 mg/kg i.p.) | also measured
COc1ccc2c(c1)c(CC(=O)O)c(C)n2C(=O)c1ccc(Cl)cc1 [Indomethacin, indomethacin] | 370 ± 15^b and 384 ± 11^b | – | – | – | – | – | – | – | – | – | – | – | – | – | –
CC[C@@H](C(N)=O)N1CCCC1=O [Levetiracetam, levetiracetam] | – | +32% (b) | 23.0 ± 4.0 NS (b) g | +44% (b) | 25.0 ± 5.2 NS (b) g | +14% (b) | 19.8 ± 4.1 NS (b) g | +17% (b) | 19.0 ± 3.6 NS (b) sec | +5% (b) | 17.1 ± 2.9 NS (b) sec | +63% (b) | 26.6 ± 6.0 NS (b) sec | – | –
NC(=O)N1c2ccccc2C=Cc2ccccc21 [Carbamazepine, carbamazepine] | – | +21% (b) | 21.0 ± 2.3 NS (b) g | +121% (b) | 38.4 ± 8.1 (b) g | +125% (b) | 39.2 ± 9.1 (b) g | +118% (b) | 35.6 ± 4.1 (b) sec | +39% (b) | 22.7 ± 4.3 NS (b) sec | +77% (b) | 28.8 ± 6.9 NS (b) sec | – | –
CN1CC[C@]23c4c5ccc(O)c4O[C@H]2[C@@H](O)C=C[C@H]3[C@H]1C5 [Morphine, morphine] | – | +164% (b) | 45.9 ± 8.8 (b) g | – | – | – | – | – | – | – | – | – | – | 8 ± 6^a s and 6 ± 3^a s | PAW-[…], % change [3, 6]: +160% (b); PAW-[…], mean ± s.e.m. [3, 7]: 42.4 ± 1.9 (b) sec
NCC1(CC(=O)O)CCCCC1 [GBP, gabapentin] | 254 ± 39 | – | – | −1% (b) | 17.2 ± 3.0 NS (b) g | +35% (b) | 23.5 ± 4.2 NS (b) g | – | – | +18% (b) | 19.3 ± 3.6 NS (b) sec | +75% (b) | 28.5 ± 5.4 NS (b) sec | 98 ± 20 s | nociceptive threshold ([1]; 20 mg/kg i.p. 30 min before measurement): 296 ± 31; nociceptive threshold ([1]; 40 mg/kg i.p. 30 min before measurement): 282 ± 33; effect on Carrageenan-induced mechanical hyperalgesia (in words) ([1]; 10, 20, 40 mg/kg i.p.): no significant effect; nociceptive threshold, late phase ([4]; 10 mg/kg i.p.): 133 ± 30 s; nociceptive threshold, early phase ([4]; 20 mg/kg i.p.): 102 ± 17 s; nociceptive threshold, late phase ([4]; 20 mg/kg i.p.): 118 ± 13 s; nociceptive threshold, early phase ([4]; 40 mg/kg i.p.): 72 ± 10 s; nociceptive threshold, late phase ([4]; 40 mg/kg i.p.): 73 ± 13 s; effect on formalin-induced nociceptive response (in words) ([4]; 10, 20, 40 mg/kg i.p.): slightly but not significantly inhibited; FORCE INDUCING PAW-WITHDRAWAL, % change ([2]; 128 mg/kg i.p. -30 min): +93% (b); FORCE INDUCING PAW-WITHDRAWAL, mean ± s.e.m. ([2]; 128 mg/kg i.p. -30 min): 33.6 ± 6.7 (b) g; PAW-WITHDRAWAL LATENCY, % change ([3]; 128 mg/kg i.p. -30 min, compared with lesioned control): +66% (b); PAW-WITHDRAWAL LATENCY, mean ± s.e.m. ([3]; 128 mg/kg i.p. -30 min, lesioned paw): 27.1 ± 5.2 NS (b) sec
